Measurements taken from ChEMBL document CHEMBL1649570, “Pharmacokinetics and ex vivo pharmacodynamic antimalarial activity of dihydroartemisinin-piperaquine in patients with uncomplicated falciparum malaria in Vietnam” (Antimicrob Agents Chemother, 2009).
Converted amounts (≈) assume the structure as drawn. The source made the active and inactive calls. The calls are words filed in the database; no cut-off is given here.

Experiments:
[1] = Half life in Plasmodium falciparum-infected patient at 40 mg/kg, po; assay type: ADME, organism-based; set-up: dose 40 mg/kg, route oral; conditions: human, in vivo
Plasmodium falciparum [2] = assay: Antiplasmodial activity against Plasmodium falciparum K1 isolated from po dosed patient with malaria; assay type: functional
Plasmodium falciparum [3] = assay: Antiplasmodial activity against Plasmodium falciparum D6; assay type: functional
Homo sapiens [4] = assay: AUC (0 to infinity) in Plasmodium falciparum-infected patient at 40 mg/kg, po; assay type: ADME, organism-based, Plasma; set-up: time infinity, dose 40 mg/kg, route oral; conditions: in vivo
Plasmodium falciparum [5] = assay: Antiplasmodial activity against Plasmodium falciparum K1 assessed as inhibition of [3H]hypoxanthine incorporation by beta counting; assay type: functional, organism-based
[6] = Tmax in Plasmodium falciparum-infected patient at 40 mg/kg, po; assay type: ADME, organism-based; set-up: dose 40 mg/kg, route oral; conditions: human, in vivo
Homo sapiens [7] = assay: Apparent oral clearance in Plasmodium falciparum-infected patient at 40 mg/kg, po; assay type: ADME, organism-based; set-up: dose 40 mg/kg, route oral; conditions: in vivo
Plasmodium falciparum [8] = assay: Antiplasmodial activity against Plasmodium falciparum K1; assay type: functional
[9] = AUC in Plasmodium falciparum-infected patient at 40 mg/kg, po; assay type: ADME, organism-based; set-up: dose 40 mg/kg, route oral; conditions: human, plasma
[10] = Cmax in Plasmodium falciparum-infected patient at 40 mg/kg, po; assay type: ADME, organism-based; set-up: dose 40 mg/kg, route oral; conditions: human, in vivo
Plasmodium falciparum [11] = assay: Antiplasmodial activity against Plasmodium falciparum D6 isolated from po dosed patient with malaria; assay type: functional
[12] = Half life in Plasmodium falciparum-infected patient at 320 mg/kg, po; assay type: ADME, organism-based; set-up: dose 320 mg/kg, route oral; conditions: human, in vivo
Plasmodium falciparum [13] = assay: Antiplasmodial activity against Plasmodium falciparum D6 isolated from patient with malaria at 25 ng/ml after 28 days; assay type: functional, organism-based
Plasmodium falciparum [14] = assay: Antiplasmodial activity against Plasmodium falciparum D6 isolated from po dosed patient with malaria after 7 days; assay type: functional, organism-based
[15] = Plasma concentration in Plasmodium falciparum-infected patient at 320 mg/kg, po after 28 days; assay type: ADME, organism-based; set-up: dose 320 mg/kg, route oral; conditions: human
Plasmodium falciparum [16] = assay: Antiplasmodial activity against Plasmodium falciparum K1 isolated from patient with malaria at 25 ng/ml after 28 days; assay type: functional, organism-based
Plasmodium falciparum [17] = assay: Antiplasmodial activity against Plasmodium falciparum K1 isolated from po dosed patient with malaria after 7 days; assay type: functional, organism-based
[18] = Cmax in Plasmodium falciparum-infected patient at 320 mg/kg, po; assay type: ADME, organism-based; set-up: dose 320 mg/kg, route oral; conditions: human, in vivo
[19] = Tmax in Plasmodium falciparum-infected patient at 320 mg/kg, po; assay type: ADME, organism-based; set-up: dose 320 mg/kg, route oral; conditions: human, in vivo
[20] = AUC (0 to infinity) in Plasmodium falciparum-infected patient at 320 mg/kg, po; assay type: ADME, organism-based; set-up: time infinity, dose 320 mg/kg, route oral; conditions: human, plasma
[21] = AUC in Plasmodium falciparum-infected patient at 320 mg/kg, po; assay type: ADME, organism-based; set-up: dose 320 mg/kg, route oral; conditions: human, plasma

## C[C@H]1[C@@H](O)O[C@@H]2O[C@@]3(C)CC[C@H]4[C@H](C)CC[C@@H]1[C@@]24OO3 [ARTENIMOL]
[1]
  half-life: 0.85 h
Plasmodium falciparum [2]
  ID90: 0.513 µg/mL (≈ 1.8 µM)
Plasmodium falciparum [3]
  IC90: 4.5 nM
Homo sapiens [4]
  AUC: 1949 ng·h/mL
Plasmodium falciparum [5]
  IC50: 2.57 nM
[6]
  Tmax: 2.8 h
Homo sapiens [7]
  CL/F: 19.8 mL/min/kg
Plasmodium falciparum [8]
  IC90: 4.85 nM
[9]
  AUC: 1950 ng·h/mL
[10]
  Cmax: 698 ng/mL
Plasmodium falciparum [11]
  ID90: 0.639 µg/mL (≈ 2.25 µM)

## Clc1ccc2c(N3CCN(CCCN4CCN(c5ccnc6cc(Cl)ccc56)CC4)CC3)ccnc2c1 [PIPERAQUINE]
[12]
  half-life: 427 h
Plasmodium falciparum [13]
  Activity: inactive
Plasmodium falciparum [14]
  Cp: 25 ng/mL
Plasmodium falciparum [3]
  IC90: 67.5 nM
[15]
  concentration at 672 h: 25 ng/mL
Plasmodium falciparum [5]
  IC50: 82.1 nM
Plasmodium falciparum [16]
  Activity: inactive
Plasmodium falciparum [17]
  Cp: 25 ng/mL
[18]
  Cmax: 568 ng/mL
Plasmodium falciparum [8]
  IC90: 122 nM
[19]
  Tmax: 5.7 h
[20]
  AUC(0-inf): 56400 ng·h/mL
[21]
  AUC: 44400 ng·h/mL
